Measurements: patent publication US20180209956A1, “HTS Assay for Identifying Small Molecule Inhibitors of RAD52 and Uses of Identified Small Molecule Inhibitors for Treatment and Prevention of BRCA-Deficient Malignancies” (University of Iowa Research Foundation, priority 2015, published 2018)

Legend:
RAD52 [1] = target: T1, RAD52 (Homo sapiens, UniProt P43351); conditions: cited from earlier work
T1 sequence (P43351 1-418): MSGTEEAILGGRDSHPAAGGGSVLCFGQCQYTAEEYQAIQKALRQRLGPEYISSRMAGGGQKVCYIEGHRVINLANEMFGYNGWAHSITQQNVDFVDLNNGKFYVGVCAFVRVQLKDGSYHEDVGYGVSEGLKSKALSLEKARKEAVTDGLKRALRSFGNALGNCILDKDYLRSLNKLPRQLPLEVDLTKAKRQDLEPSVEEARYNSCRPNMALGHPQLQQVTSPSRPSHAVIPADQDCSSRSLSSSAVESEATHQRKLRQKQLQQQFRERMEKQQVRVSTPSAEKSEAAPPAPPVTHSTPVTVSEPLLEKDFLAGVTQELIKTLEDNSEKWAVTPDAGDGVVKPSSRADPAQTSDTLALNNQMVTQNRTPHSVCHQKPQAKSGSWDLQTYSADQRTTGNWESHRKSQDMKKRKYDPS

RAD52-dsDNA interaction = target: T2, RAD52-dsDNA interaction (Homo sapiens, UniProt P43351); experiment: FRET-based RAD52-dsDNA binding assay; conditions: 1 nM dsDNA, 10 nM RAD52
T2 construct: made in house
T2 sequence (P43351 1-418): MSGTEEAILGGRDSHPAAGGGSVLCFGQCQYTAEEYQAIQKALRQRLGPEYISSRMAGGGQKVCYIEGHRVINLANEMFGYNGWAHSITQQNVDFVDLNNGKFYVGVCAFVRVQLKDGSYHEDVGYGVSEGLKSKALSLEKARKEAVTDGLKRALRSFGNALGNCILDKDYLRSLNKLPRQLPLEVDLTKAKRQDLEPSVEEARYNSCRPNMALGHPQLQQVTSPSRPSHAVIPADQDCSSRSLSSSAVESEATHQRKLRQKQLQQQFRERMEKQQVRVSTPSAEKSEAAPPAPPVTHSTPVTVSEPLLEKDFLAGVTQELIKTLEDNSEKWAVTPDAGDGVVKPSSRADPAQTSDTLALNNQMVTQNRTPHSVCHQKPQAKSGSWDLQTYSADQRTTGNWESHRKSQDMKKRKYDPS
Text: These assays utilize two complementary single stranded 28-nucleotide-long substrates, which contain either Cy3 (T-28) or Cy5 (P-28) incorporated into the middle of the respective DNA strand. When the substrates are annealed by RAD52, the Cy3 and Cy5 dyes are separated by 3 base pairs and yield a high FRET signal (FIG. 2 Supplement 2). […] The annealing reactions were initiated by mixing two half reactions and observing the change in FRET over time in the presence of varying concentrations of small molecules. An increasing FRET value over time indicates formation of the dsDNA duplex which brings the two dyes in close proximity (FIG. 2 Supplement 2). Fitting the annealing data to a double exponential allowed us to calculate and compare the final extent of annealing at varying concentrations of each compound compared to RAD52 alone. We plotted the final extent of annealing vs the concentration of the compound and calculated an IC50 of annealing inhibition.
where FRET0 is the initial FRET value of RAD52-ssDNA complex in the absence of the compound and FRETmin is the FRET value at complete inhibition. FRET values were calculated as an average of three or more independent annealing reactions plotted against the concentration of the compound. […]

RAD52 [2] = target: T1, RAD52; experiment: WaterLOGSY NMR analysis of compound binding to RAD52; parameters: made in house; conditions: 20 or 40 μM compound, 3.3 μM RAD52
Experimental: In WaterLOGSY spectrum, if a compound binds to a protein, the compound will receive negative nuclear Overhauser effects (NOEs) due to the slow tumbling of the protein-compound complex, leading to a positive WaterLOGSY peak.
(§1) WaterLOGSY NMR analysis of the compound binding to RAD52 and RPA proteins: Compound binding to RAD52 and RPA proteins was analyzed using water-ligand observation with gradient spectroscopy (WaterLOGSY) NMR experiments (Dalvit et al., 2001, Dalvit et al., 2000). The WaterLOGSY spectra of compounds in the presence of RAD52 or RPA were acquired using a water NOE mixing time of 1 s and a T2 relaxation filter of 50 ms just before data acquisition to suppress the broad signals derived from protein. The protein buffer used in the experiments contains 10 mM Tris-d11, 75 mM KCl, 0.25 mM EDTA, pH 7.5, and 10% D20. All NMR data were acquired on a Bruker Avance II 800 MHz NMR spectrometer equipped with a sensitive cryoprobe and recorded at 25° C. The ^1H chemical shifts were referenced to 2,2-dimethyl-2-silapentane-5-sulfonate (DSS). NMR spectra were processed using NMR Pipe (Delaglio et al., 1995) and analysed using NMR View (Johnson and Blevins, 1994).

RPA = target: T3, RPA (Homo sapiens, UniProt P15927+P27694+P35244); experiment: WaterLOGSY NMR analysis of compound binding to RPA; conditions: 20 or 40 μM compound, 3.3 μM RPA
T3 construct: made in house
Text: Compounds ‘1’ and ‘6’ physically interact with RAD52: To confirm that the selected compounds bind RAD52, we employed water-ligand observation with gradient spectroscopy (WaterLOGSY), an NMR technique, which is based on transfer of magnetization from bulk water to the protein-bound compound of interest (Dalvit et al., 2001, Dalvit et al., 2000). In WaterLOGSY spectrum, if a compound binds to a protein, the compound will receive negative nuclear Overhauser effects (NOEs) due to the slow tumbling of the protein-compound complex, leading to a positive WaterLOGSY peak.
as §1

RPA-ssDNA interaction = target: T4, RPA-ssDNA interaction (Homo sapiens, UniProt P15927+P27694+P35244); experiment: FRET titration of the RPA-Cy3-dT30-Cy5 complex; type: binding
T4 construct: made in house
Text: Compounds ‘1’ and ‘6’ inhibit RAD52 binding to and annealing of the RPA-coated ssDNA: In the cell, ssDNA is typically found in complex with Replication protein A (RPA), which is the major eukaryotic ssDNA-binding protein essential for DNA replication, repair and recombination (Wold, 1997, Oakley and Patrick, 2010, Chen and Wold, 2014). The RPA-ssDNA complex is a natural substrate for the RDA52-mediated strand annealing. To confirm that compounds ‘1’ and ‘6’ can inhibit the RAD52 binding to and annealing of the RPA-coated ssDNA we added stoichiometric amounts of RPA (1 RPA per 30 nucleotides of ssDNA) to the FRET-based ssDNA binding/wrapping and ssDNA annealing experiments described above. RPA binds ssDNA with high affinity and extends the ssDNA to its contour length. In our assays such an extension manifests as a distinct FRET state of ˜0.3, which is readily distinguished from a FRET state of ˜0.48 of free Cy3-dT30-Cy5 ssDNA, as well as ˜0.63 FRET of the stoichiometric ssDNA-RPA-RAD52 complex (see FIG. 2 Supplement 1 and (Grimme and Spies, 2011) for details). […] Both, however, inhibited the RAD52 binding to and wrapping of RPA-coated ssDNA with IC50 values identical to those determined without RPA (FIG. 2e and FIG. 3e).
(§2) where FRET0 is the initial FRET value of RAD52-ssDNA complex in the absence of the compound and FRETmin is the FRET value at complete inhibition. FRET values were calculated as an average of three or more independent annealing reactions plotted against the concentration of the compound. Inhibition of the RAD52-dsDNA interaction was assayed in a similar experiment, except the stoichiometric complexes containing 1 nM molecules of Cy3-Oligo28-Cy5 duplex DNA and 10 nM RAD52. […] In all experiments, the FRET values for each data point were corrected for the effects of the compounds on the respective substrate in the absence of RAD52.

RAD52-ssDNA interaction = target: T5, RAD52-ssDNA interaction (Homo sapiens, UniProt P43351); experiment: FRET-based ssDNA binding and wrapping assay (RAD52-Cy3-dT30-Cy5 complex); conditions: FRET-based competition assay; read-out: IC50, RAD52-ssDNA interaction
T5 construct: made in house
T5 sequence (P43351 1-418): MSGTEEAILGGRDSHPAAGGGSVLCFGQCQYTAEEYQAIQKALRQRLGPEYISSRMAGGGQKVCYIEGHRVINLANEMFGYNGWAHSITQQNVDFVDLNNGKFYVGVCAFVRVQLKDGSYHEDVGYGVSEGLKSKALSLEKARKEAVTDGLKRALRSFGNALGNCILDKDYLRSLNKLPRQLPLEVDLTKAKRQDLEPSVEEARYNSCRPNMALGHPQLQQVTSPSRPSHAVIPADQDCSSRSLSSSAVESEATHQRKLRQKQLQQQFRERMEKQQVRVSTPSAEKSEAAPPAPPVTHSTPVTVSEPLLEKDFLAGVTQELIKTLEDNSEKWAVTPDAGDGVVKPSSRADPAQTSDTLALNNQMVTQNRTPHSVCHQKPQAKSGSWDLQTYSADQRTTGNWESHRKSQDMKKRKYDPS
Experimental: We titrated increasing amounts of each compound into a cuvette containing preformed stoichiometric RAD52-Cy3-dT30-Cy5 complexes (1 nM Cy3-dT30-Cy5 and 8 nM RAD52). […] At each concentration of the compound, the FRET signal was adjusted for the change in Cy3 and Cy5 fluorescence in the presence of the compound, but in the absence of protein.
(§3) FRET-based DNA binding and annealing assays: FRET-based ssDNA binding, dsDNA binding, and annealing assays were carried out as previously described (Grimme et al., 2010, Grimme and Spies, 2011) using Cary Eclipse spectrofluorimeter (Varian) at 25° C. in buffer containing 30 mM Tris-Acetate pH7.5, 1 mM DTT, and 0.1 mg/mL BSA. Cy3 dye was excited at 530 nm and its emission was monitored at 565 nm. Emission of Cy5 acceptor fluorophore excited through the energy transfer from Cy3 donor is monitored at 660 nm simultaneously with emission of Cy3 dye. Both the excitation and the emission slit widths were set to 10 nm.
All experiments were performed in triplicates, and the data are shown as averages and standard deviations for three independent measurements. To remove possible experimental artifacts associated with chromogenic or fluorogenic compounds, as well as with the compounds that may quench or enhance Cy3 or Cy5 fluorescence, we also performed control titrations whereby we titrated each compound into 1 nM Cy3-dT30-Cy5 in the absence of RAD52. For each compound concentration we subtracted the difference in the FRET signal in the presence and absence of the compound from the respective FRET signal in the presence of RAD52. The FRET signal corrected for the compound fluorescence was calculated using the equation: […]
as previously described (Grimme et al., 2010, Grimme and Spies, 2011) and plotted as a function of compound concentration and fitted to the following inhibition model”
as §2

[3] = target: T6, RAD52-RPA-Cy3-dT30-Cy5 complex (Homo sapiens, UniProt P43351); experiment: FRET-based RAD52 binding/wrapping of RPA-coated ssDNA
T6 construct: made in house
Experimental: RPA binds ssDNA with high affinity and extends the ssDNA to its contour length.
as §2

RAD52 [4] = target: T7, RAD52 (Homo sapiens, UniProt P43351 P43351:1-418); experiment: competition; 10 nM poly(dT)-100 fully inhibits wrapped RAD52-Cy3-dT30-Cy5 complex (100 nM RAD52, 15 nM dT30); 20 mM Hepes pH 7.5, 1 mM DTT, 0.1 mg/mL BSA; conditions: tags: 6xHis; chain copies: heptameric ring per 30-mer ssDNA (stated)
T7 sequence: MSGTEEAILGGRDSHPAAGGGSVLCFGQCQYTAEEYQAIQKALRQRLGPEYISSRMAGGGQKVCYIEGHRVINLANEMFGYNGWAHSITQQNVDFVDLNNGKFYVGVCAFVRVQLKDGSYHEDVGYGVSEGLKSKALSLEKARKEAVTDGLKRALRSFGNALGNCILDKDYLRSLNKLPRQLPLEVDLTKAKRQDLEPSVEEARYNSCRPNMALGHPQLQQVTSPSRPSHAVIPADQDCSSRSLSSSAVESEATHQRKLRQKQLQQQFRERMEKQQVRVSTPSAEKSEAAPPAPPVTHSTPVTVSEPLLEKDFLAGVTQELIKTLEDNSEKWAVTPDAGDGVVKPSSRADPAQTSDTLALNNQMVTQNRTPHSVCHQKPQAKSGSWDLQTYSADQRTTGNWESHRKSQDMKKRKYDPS

RAD52 [5] = target: T7, RAD52; experiment: method FRET; stoichiometric wrapped complex at about 8 nM RAD52 with 1 nM ssDNA; 30 mM Tris-acetate pH 7.5, 1 mM DTT, 0.1 mg/mL BSA, 25 C; also bound when ssDNA is RPA-coated (FRET about 0.63); conditions: tags: 6xHis; chain copies: heptameric ring per 30-mer ssDNA (stated); label: Cy3 and Cy5 at the ends
Experimental: as §3

[6] = target: RPA (RPA70/RPA35/RPA14 heterotrimer) (UniProt P27694;P15927;P35244 P27694:1-616,P15927:1-270,P35244:1-121); experiment: FRET; 1:1 stoichiometric complex, FRET about 0.3 vs about 0.48 for free ssDNA; 30 mM Tris-acetate pH 7.5, 25 C; conditions: tags: untagged; label: Cy3 and Cy5 at the ends
Sequence of RPA (RPA70/RPA35/RPA14 heterotrimer) (P27694 whole entry, chain 1 of 3): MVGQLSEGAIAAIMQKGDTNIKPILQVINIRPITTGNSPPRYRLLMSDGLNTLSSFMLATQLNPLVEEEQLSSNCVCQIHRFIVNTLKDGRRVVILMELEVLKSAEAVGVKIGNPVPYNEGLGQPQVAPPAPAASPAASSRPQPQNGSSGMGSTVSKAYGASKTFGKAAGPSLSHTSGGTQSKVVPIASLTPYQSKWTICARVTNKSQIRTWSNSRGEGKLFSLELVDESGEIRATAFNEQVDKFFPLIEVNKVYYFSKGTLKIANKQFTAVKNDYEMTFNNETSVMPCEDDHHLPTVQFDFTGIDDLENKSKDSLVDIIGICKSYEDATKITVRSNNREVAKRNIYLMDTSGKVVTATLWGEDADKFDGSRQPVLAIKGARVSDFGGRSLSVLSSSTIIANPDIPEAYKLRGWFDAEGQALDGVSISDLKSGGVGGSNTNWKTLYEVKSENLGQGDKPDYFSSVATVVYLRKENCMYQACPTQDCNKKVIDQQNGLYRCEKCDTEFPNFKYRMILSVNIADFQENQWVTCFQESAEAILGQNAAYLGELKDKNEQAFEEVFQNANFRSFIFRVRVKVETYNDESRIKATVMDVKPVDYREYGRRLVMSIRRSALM
Sequence of RPA (RPA70/RPA35/RPA14 heterotrimer) (P15927 whole entry, chain 2 of 3): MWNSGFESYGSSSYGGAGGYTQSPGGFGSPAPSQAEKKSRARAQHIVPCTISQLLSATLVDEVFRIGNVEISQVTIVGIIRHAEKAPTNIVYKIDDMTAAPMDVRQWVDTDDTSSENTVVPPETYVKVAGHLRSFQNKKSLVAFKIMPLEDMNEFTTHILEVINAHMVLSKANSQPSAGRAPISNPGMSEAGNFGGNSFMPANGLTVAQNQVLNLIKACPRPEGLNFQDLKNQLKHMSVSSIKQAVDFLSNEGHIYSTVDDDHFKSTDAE
Sequence of RPA (RPA70/RPA35/RPA14 heterotrimer) (P35244 whole entry, chain 3 of 3): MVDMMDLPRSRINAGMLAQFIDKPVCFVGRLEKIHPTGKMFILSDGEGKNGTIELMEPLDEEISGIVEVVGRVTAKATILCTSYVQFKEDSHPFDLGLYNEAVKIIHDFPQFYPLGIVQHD

T6 sequence (P27694 whole entry partner, one chain of several): as the sequence (P27694 whole entry, chain 1 of 3) above
T6 sequence (P15927 whole entry partner, one chain of several): as the sequence (P15927 whole entry, chain 2 of 3) above
T6 sequence (P35244 whole entry partner, one chain of several): as the sequence (P35244 whole entry, chain 3 of 3) above
T3 sequence (P27694 whole entry): as the sequence (P27694 whole entry, chain 1 of 3) above
T3 sequence (P15927 whole entry): as the sequence (P15927 whole entry, chain 2 of 3) above
T3 sequence (P35244 whole entry): as the sequence (P35244 whole entry, chain 3 of 3) above
T4 sequence (P27694 whole entry): as the sequence (P27694 whole entry, chain 1 of 3) above
T4 sequence (P15927 whole entry): as the sequence (P15927 whole entry, chain 2 of 3) above
T4 sequence (P35244 whole entry): as the sequence (P35244 whole entry, chain 3 of 3) above

NC(Cc1cc(O)c(O)cc1O)C(=O)O (racemic) [6-hydroxy-DL-dopa]
Effect on supramolecular assembly of RAD52 (RAD52 [1]): disrupts supramolecular assembly of the RAD52 protein

O=C(O[C@@H]1O[C@@H]2COC(=O)c3cc(O)c(O)c(O)c3-c3c(cc(O)c(O)c3O)C(=O)O[C@H]([C@H]1O)[C@@H]2O)c1cc(O)c(O)c(O)c1 [NP-004255, corilagin]
Effect on the RAD52-dsDNA interaction (RAD52-dsDNA interaction): no effect
Binding to RAD52 by WaterLOGSY (RAD52 [2]): physically interacts with RAD52 protein
Binding to RPA by WaterLOGSY (RPA): bound RPA
Effect on the RPA-ssDNA interaction (RPA-ssDNA interaction): did not affect the RPA-ssDNA complex
IC50 (RAD52-ssDNA interaction): 1500 ± 200 nM
IC50 [3]: 500 ± 100 nM

B1: Poly dT100 (ssDNA)
DNA: TTTTTTTTTTTTTTTTTTTTTTTTTTTTTTTTTTTTTTTTTTTTTTTTTTTTTTTTTTTTTTTTTTTTTTTTTTTTTTTTTTTTTTTTTTTTTTTTTTTT
modifications: [none]
binding result (RAD52 [4]): binds

TTTTTTTTTTTTTTTTTTTTTTTTTTTTTT (ssDNA) [Cy3-dT30-Cy5]
binding result (RAD52 [5]): binds
binding result [6]: binds
